Like-named read-outs stand apart in the source and are kept apart here.
Experiments:
[1] = system: buffy coat neutrophils and monocytes (PI3K-gamma); assay: Isolated Leukocyte oxidative burst; format: cell-based; details: absence of serum, read-out: IC50 Average ± Standard Deviation
Description: Neutrophils, monocytes and macrophages are key mediators of innate immunity. They release reactive oxygen species (ROS) as part of the innate immune inflammatory response. ROS production is induced by inflammatory mediators like chemokines, bacterial peptides and complement that recruit the innate immune cells to the site of inflammation. These inflammatory mediators trigger activation of PI3K-gamma and initiate a downstream signaling cascade that leads to the assembly of the complete NADPH oxidase complex at the plasma membrane generating ROS. PI3K-gamma functional activity was measured in whole blood and huffy coat neutrophils and monocytes via the generation of ROS. The cells are stimulated with TNF-alpha for 10 minutes, then with bacterial cell wall-derived chemotactic peptide, fMLP, for 20 minutes, and loaded with a non-fluorescent dye […] (DHR). ROS produced by the cells oxidizes DHR to fluorescent rhodamine causing an increase in fluorescent rhodamine content in the cells. PI3K-gamma functional activity is measured by the ability of neutrophils and monocytes to generate ROS following fMLP stimulation. Leukocytes and whole blood samples were analyzed on a BD FACSCalibur™ to quantitate cells positive for fluorescent rhodamine. Buffy coat cells generate IC50S in the absence of serum and whole blood assay generates IC50S in the presence of serum.

CYP3A4 = CYP3A4 (Homo sapiens, UniProt P08684); assay: Time-dependent inhibition of CYP3A4, IC50 shift assay; format: in vitro ADME; set-up: evaluated in human liver microsomes using the IC50 shift assay; from tissue; host or cells: human liver microsomes; details: CYP3A4, preincubation 0 and 30 minutes with/without NADPH, human liver microsomes
Sequence of CYP3A4 (P08684 whole entry): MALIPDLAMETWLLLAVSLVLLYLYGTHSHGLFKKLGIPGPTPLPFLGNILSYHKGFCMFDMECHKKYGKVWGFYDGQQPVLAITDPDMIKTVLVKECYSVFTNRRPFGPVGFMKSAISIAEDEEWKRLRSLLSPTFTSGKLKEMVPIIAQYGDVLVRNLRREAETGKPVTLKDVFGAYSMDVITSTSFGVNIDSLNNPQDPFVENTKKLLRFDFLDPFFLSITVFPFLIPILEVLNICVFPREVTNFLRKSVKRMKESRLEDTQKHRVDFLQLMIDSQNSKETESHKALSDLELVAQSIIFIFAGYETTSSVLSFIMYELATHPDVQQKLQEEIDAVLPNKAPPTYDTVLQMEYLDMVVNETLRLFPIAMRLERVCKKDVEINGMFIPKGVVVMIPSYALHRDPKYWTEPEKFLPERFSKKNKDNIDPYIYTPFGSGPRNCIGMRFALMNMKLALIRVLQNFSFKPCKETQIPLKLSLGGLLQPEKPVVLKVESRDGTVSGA
Experimental: Time-dependent inhibition of CYP3A4 by Compound 1 also was evaluated in human liver microsomes using the IC50 shift assay. In the study, Compound 1 at 0.1 to 50 μM was preincubated with human liver microsomes in the presence and absence of NADPH for 0 and 30 minutes. Incubations were then diluted 10-fold with buffer and the remaining CYP3A4 (testosterone-6-beta-hydroxylase) activity was measured over a 10 minute period. There was no significant change (IC50 shift=1) in the IC50 of Compound 1 in the presence or absence of NADPH.

[2] = Oral pharmacokinetics / bioavailability; format: in vivo, Rat
Description: The bioavailability in monkey (greater than 100%) may be explained by the tenfold difference between the IV and oral doses. Compound 1 was rapidly absorbed in all species, with maximum systemic concentration observed within approximately one to three hours of dosing.

[3] = Tissue drug concentrations in CD40-induced IBD model; format: in vivo, mouse; details: 7 days, 2 h after last dose; for Kp at 2 h / concentration at 2 h: Rag1 knock-out (Rag 1−/−), mouse, intraperitoneal; for Kp at 2 h: colon (relative to plasma); for concentration at 2 h: plasma
Experimental: The PI3Kγ inhibitor, Compound 1, was tested in a CD40 induced colitis model to determine its effect on disease course. The CD40 model of IBD is induced by injecting an anti-CD40 monoclonal antibody (agonist, i.e., activating antibody versus neutralizing antibody) into T and B cell deficient mice (Rag 1−/− mice) to induce both systemic and intestinal inflammation that leads to colitis and wasting disease via the innate immune pathway. (See, e.g., Immunity 25, 309-318, August 2006). Briefly, Rag1 knock-out mice were injected IP with the anti-CD40 monoclonal antibody FGK45. Starting on Day 0, mice were treated with PBS, vehicle or Compound 1 at 5 mg/kg b.i.d. or 10 mg/kg b.i.d. Compound 1 was administered IP for 7 days on a 10/14-hour b.i.d. dosing regimen. Compound 1 was formulated in 5% NMP/15% PEG-400/80% in a 0.5% HPMC-E50 solution in water. At study termination, serum and colon samples were collected at 2 hours following the last dose for drug concentration analysis. Body weights were measured daily during the study. Compound 1 concentrations were analyzed in the plasma samples collected 2 hours following the final dose at study termination. Concentrations were determined using a high performance liquid chromatography/tandem mass spectrometry (HPLC/MS/MS) method.

[4] = system: MCP-1 stimulated pAkt in THP-1 cells (PI3K-gamma); assay: MCP-1 Stimulated pAkt in THP-1 Cells; format: cell-based; details: Homo sapiens
Experimental: Chemokines like MCP-1 bind to their receptors resulting in activation of the PI3K-gamma signaling pathway. PI3K-gamma leads to generation of PIP3 and activation of downstream molecules like PDK-1 and Akt. Akt phosphorylation is a measure of PI3K activity in the cell. In this assay, THP-1 cells (human monocytic cell line) are starved overnight to deplete pAkt levels. Subsequent stimulation with MCP-1 for 3 minutes leads to PI3K-gamma-induced phoshorylation of Akt at the Threonin 308 and Serine 473 sites. Cells were fixed and stained for intracellular phosphoAKT (Ser 473) then analyzed using a BD FACSCalibur™ cytometer resulting in a measure of cellular PI3K-gamma activity.

CYP2C19 = CYP2C19 (Homo sapiens, UniProt P33261); assay: Metabolism by Recombinant CYP Enzymes; format: in vitro ADME; details: 1 μM, recombinant CYP2C19, NADPH
Sequence of CYP2C19 (P33261 whole entry): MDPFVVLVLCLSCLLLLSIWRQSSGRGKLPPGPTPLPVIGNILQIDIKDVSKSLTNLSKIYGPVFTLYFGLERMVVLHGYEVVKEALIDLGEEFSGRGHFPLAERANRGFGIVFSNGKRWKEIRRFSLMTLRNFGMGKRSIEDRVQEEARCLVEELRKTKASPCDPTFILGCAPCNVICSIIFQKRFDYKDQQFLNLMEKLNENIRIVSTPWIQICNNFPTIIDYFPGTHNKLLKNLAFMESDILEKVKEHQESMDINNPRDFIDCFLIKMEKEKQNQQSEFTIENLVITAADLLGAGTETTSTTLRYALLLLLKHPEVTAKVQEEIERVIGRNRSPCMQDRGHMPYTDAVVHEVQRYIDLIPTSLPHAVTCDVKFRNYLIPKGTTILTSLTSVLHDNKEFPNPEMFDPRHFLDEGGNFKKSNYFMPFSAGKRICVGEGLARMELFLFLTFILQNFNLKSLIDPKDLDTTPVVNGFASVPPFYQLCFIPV
Experimental: Microsomes that contained recombinant CYP enzymes (CYP1A2, 2B6, 2C8, 2C9, 2C19, 2D6, 2E1 and 3A4) were used to determine which CYP catalyzes the oxidation of Compound 1. Accordingly, Compound 1 (1 μM) was incubated with individual recombinant CYPs in the presence of the cofactor NADPH. The percent parent drug remaining at the end of the incubation period was determined by LC-MS/MS and compared to that present at the beginning.

[5] = Permeability in Caco-2 cell line; format: in vitro ADME; details: human
Experimental: (§1) The permeability of Compound 1 was evaluated using both Caco-2 and MadinDarby canine kidney (MDCK) wild-type cell lines. Cells were exposed to drug in buffer on the apical side (measuring permeability in the A-to-B direction) or basolateral side (measuring permeability in the B-to-A direction) and incubated at 37° C. for one hour. Permeability was high in the A-to-B direction in both the MDCK and Caco-2 cell lines (33 and 18×10^−6 cm/sec, respectively).

Caco-2 = assay: Permeability in Caco-2 cell line; format: in vitro ADME; details: Caco-2, 5 μM, A > B
Experimental: as §1

[6] = in vivo, Rat, single oral, 1 mg/kg nominal, spray-dried dispersion

`Cc1cc(-c2cncc([C@@H](O)C(F)(F)F)c2)nc2c1C(=O)N(c1cnn(CC(F)F)c1)C2(C)C` [Compound 1, (R)-6-(1-(2,2-difluoroethyl)-1H-pyrazol-4-yl)-4,7,7-trimethyl-2-(5-(2,2,2-trifluoro-1-hydroxyethyl)pyridin-3-yl)-6,7-dihydro-5H-pyrrolo[3,4-b]pyridin-5-one] gave an IC50 [1] of 220 nM, an IC50 shift (CYP3A4) of 1 and a DN_AUCINF ([2]; Rat, single oral, 1 mg/kg nominal, spray-dried dispersion) of 5140 ng·h/mL. The F ([2]; Rat, single oral, 1 mg/kg nominal, spray-dried dispersion, 1 mg/kg) was 84%, the AUC(0-inf) [2, 6] was 5110 ng·h/mL and the MRT [2, 6] was 18.3 h. It also gave a Tmax [2, 6] of 3.33 h, a half-life [2, 6] of 12.5 h and an AUC ([2]; in vivo, Rat, single oral, 1 mg/kg nominal, spray-dried dispersion, read-out: AUCALL) of 5000 ng·h/mL. It also gave a Cmax ([2]; in vivo, Rat, single oral, 1 mg/kg nominal, spray-dried dispersion, read-out: Cmax) of 260 ng/mL, an AUC ([2]; rat, in vivo, Oral gavage, 3 mg/kg nominal dose, vehicle 0.2%MC/1%SLS, read-out: Rat PO AUC) of 18000 ng·h/mL and a Cmax ([2]; rat, in vivo, Oral gavage, 3 mg/kg nominal dose, vehicle 0.2%MC/1%SLS, read-out: Rat PO Cmax) of 1000 ng/mL. The “2 h Tissue Drug Concentration, Colon” value ([3]; 5 mg/kg b.i.d. IP) was 6110 ± 6350 ng/g, the “2 h Tissue Drug Concentration, Colon” value ([3]; 10 mg/kg b.i.d. IP) was 7480 ± 9700 ng/g and the Kp at 2 h ([3]; 5 mg/kg b.i.d. IP) was 1.5. It also gave a Kp at 2 h ([3]; 10 mg/kg b.i.d. IP) of 1.2, a concentration at 2 h ([3]; 5 mg/kg b.i.d. IP) of 4020 ± 4520 ng/mL and a concentration at 2 h ([3]; 10 mg/kg b.i.d. IP) of 6220 ± 6190 ng/mL. For the same compound, the IC50 ([4]; THP-1, summary of cell assays, read-out: potency in PI3K-gamma associated cell assays) was 250 nM, the IC50 ([4]; THP-1/MCP-1/pAkt, PI3K-gamma dependent, read-out: IC50 Average ± Standard Deviation) was 240 ± 70 nM and the “% Parent Remaining @ 30 min” value (CYP2C19) was 118%. The Papp A→B at 1 h, 5 μM ([5]; Caco-2, Caco-2, 5 μM, A > B) was 18 ×10⁻⁶ cm/s, the recovery at 1 h, 5 μM ([5]; Caco-2, Caco-2, 5 μM, A > B) was 87% and the recovery at 1 h, 5 μM ([5]; Caco-2, Caco-2, 5 μM, B > A) was 96%. For the same compound, the efflux ratio at 1 h, 5 μM ([5]; Caco-2, 5 μM) was 1.9, the Papp B→A at 1 h, 5 μM ([5]; Caco-2, 5 μM, B > A) was 60.7 ×10⁻⁶ cm/s and the “Avg. Papp” value (Caco-2) was 32.6 ×10⁻⁶ cm/s.
